Assays:
αLβ2/ICAM-1 = target: T1, αLβ2/ICAM-1 (Homo sapiens, UniProt P05107+P20701); experiment: Static cell adhesion assay, HSB cells on ICAM-1 (LFA-1; LAD); format: cell-based; conditions: RFU of compound / RFU of THI0349, both at the same concentration
T1 construct: The Jurkat (VCAM-1 assays) and HSB (ICAM-1 assays) cell lines were obtained from American Type Culture Collection; endogenous in cells; host or cells: HSB (ATCC)
Protocol: (§1) For in vitro cell adhesion assays, compounds were dissolved in DMSO to make a series of stock solutions such that a 1:100 dilution in assay buffer would yield the desired final working concentrations in 1% DMSO (vehicle). Human VCAM-1 and ICAM-1 were purchased from R&D Systems (Minneapolis, MN). The Jurkat (VCAM-1 assays) and HSB (ICAM-1 assays) cell lines were obtained from American Type Culture Collection (Manassas, VA) and were maintained in recommended culture media.
(§2) Assays were performed as previously described in Vanderslice et al., (2010), Biochem Biophys Res Commun 400, 619-624; and Vanderslice et al., (2013) J Biol Chem 288, 19414-19428. VCAM-1 or ICAM-1 ligand in 50 μL of 50 mM Tris-HCl (pH 7.4), 150 mM NaCl, (TBS) was added to wells of a 96-well plate and allowed to coat overnight at 4° C. To maximize the window to evaluate agonist activity, a sub-optimal coating concentration of ligand was used, typically 0.5 and 5 μg/mL in 50 μL TBS for VCAM-1 and ICAM-1 respectively. This ligand concentration corresponded approximately to that which would yield <5% adhesion as determined by dose-response curves. Briefly, 2×10^6 cells were labeled for 30 minutes with calcein-AM (Molecular Probes), washed, resuspended in binding buffer, and added to triplicate wells of ligand-coated plates (2×10^5 cells/well) that had been blocked with 2% BSA. After a 30-minute incubation at 37° C., the plates were washed 3 times with binding buffer, the adherent cells were lysed, and fluorescence was measured on a Tecan Safire^2 plate reader. The binding buffer was PBS with 1 mM MgCl2, 50% FBS for α4β1/VCAM-1 assays and PBS with 2 mM MgCl2, 5 mM EGTA, 50% FBS for αLβ2/ICAM-1 assays. EC50 is defined as the concentration of compound required to achieve 50% of the maximal response.
In relation to LAD (Leukocyte Adhesion Deficiency), LFA-1 ratios are determined by dividing the relative fluorescence units (RFU) of each compound at a concentration of 3 μM over that of the reference standard of THI0349, also at 3 μM, (RFU Compound/RFU of THI0349). Log Ps were calculated by either Chemdraw® version 12 (CambridgeSoft) or ACD/Chemsketch® (ACD/Labs).

α4β1/VCAM-1 = target: T2, α4β1/VCAM-1 (Homo sapiens, UniProt P05556+P13612); experiment: Static cell adhesion assay, Jurkat cells on VCAM-1 (VLA-4 agonist activity); format: cell-based; conditions: EC50 relative to THI0349 (average 11 uM) run on the same plate; Jurkat cells, 50% FBS
T2 construct: The Jurkat (VCAM-1 assays) and HSB (ICAM-1 assays) cell lines were obtained from American Type Culture Collection; endogenous in cells; host or cells: Jurkat (ATCC)
T2 sequence (P13612 34-1032): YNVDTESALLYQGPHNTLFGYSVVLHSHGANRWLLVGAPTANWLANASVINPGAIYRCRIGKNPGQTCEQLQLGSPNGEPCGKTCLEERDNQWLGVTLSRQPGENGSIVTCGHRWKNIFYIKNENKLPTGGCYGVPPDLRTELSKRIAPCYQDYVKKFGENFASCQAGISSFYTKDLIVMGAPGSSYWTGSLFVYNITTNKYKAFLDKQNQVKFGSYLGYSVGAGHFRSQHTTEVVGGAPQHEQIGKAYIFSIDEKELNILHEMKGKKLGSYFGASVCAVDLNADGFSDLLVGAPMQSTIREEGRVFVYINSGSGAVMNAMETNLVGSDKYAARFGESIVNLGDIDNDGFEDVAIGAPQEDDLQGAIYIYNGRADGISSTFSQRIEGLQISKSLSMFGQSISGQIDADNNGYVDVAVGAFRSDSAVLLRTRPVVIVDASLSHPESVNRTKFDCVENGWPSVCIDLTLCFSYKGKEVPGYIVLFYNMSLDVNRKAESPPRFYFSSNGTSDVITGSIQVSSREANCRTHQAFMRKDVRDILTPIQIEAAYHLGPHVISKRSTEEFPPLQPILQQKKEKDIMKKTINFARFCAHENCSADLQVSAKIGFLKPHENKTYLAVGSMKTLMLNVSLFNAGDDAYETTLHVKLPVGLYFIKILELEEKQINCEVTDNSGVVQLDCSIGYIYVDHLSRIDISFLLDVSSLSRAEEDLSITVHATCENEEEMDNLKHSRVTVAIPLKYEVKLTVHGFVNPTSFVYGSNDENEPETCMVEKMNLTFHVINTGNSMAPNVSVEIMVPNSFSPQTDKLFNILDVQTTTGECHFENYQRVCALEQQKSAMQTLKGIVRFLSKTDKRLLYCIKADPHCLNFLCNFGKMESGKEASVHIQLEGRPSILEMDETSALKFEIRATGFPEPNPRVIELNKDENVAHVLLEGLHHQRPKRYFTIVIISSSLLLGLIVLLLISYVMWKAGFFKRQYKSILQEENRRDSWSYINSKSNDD
T2 sequence (P05556 21-798): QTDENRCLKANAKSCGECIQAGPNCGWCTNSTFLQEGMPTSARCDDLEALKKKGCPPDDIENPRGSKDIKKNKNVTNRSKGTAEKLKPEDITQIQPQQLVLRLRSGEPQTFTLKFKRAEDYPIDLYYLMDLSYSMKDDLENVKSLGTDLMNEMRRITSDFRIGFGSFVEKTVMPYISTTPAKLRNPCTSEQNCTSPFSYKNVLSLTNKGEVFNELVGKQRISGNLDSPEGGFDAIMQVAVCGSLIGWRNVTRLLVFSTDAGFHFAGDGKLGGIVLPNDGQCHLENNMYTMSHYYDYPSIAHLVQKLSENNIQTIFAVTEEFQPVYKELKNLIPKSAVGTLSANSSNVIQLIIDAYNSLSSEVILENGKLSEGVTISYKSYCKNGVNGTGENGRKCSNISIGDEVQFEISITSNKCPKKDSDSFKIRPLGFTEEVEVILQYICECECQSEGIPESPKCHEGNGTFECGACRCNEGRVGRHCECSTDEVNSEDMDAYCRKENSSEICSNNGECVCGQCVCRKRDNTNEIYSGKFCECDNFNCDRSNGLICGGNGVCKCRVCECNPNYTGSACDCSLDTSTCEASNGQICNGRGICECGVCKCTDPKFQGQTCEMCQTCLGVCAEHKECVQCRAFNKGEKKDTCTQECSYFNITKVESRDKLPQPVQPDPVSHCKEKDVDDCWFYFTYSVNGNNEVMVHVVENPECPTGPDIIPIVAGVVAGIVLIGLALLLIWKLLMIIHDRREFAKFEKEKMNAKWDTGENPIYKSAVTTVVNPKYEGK
Protocol: as §1, §2

T1 sequence (P20701 26-1170): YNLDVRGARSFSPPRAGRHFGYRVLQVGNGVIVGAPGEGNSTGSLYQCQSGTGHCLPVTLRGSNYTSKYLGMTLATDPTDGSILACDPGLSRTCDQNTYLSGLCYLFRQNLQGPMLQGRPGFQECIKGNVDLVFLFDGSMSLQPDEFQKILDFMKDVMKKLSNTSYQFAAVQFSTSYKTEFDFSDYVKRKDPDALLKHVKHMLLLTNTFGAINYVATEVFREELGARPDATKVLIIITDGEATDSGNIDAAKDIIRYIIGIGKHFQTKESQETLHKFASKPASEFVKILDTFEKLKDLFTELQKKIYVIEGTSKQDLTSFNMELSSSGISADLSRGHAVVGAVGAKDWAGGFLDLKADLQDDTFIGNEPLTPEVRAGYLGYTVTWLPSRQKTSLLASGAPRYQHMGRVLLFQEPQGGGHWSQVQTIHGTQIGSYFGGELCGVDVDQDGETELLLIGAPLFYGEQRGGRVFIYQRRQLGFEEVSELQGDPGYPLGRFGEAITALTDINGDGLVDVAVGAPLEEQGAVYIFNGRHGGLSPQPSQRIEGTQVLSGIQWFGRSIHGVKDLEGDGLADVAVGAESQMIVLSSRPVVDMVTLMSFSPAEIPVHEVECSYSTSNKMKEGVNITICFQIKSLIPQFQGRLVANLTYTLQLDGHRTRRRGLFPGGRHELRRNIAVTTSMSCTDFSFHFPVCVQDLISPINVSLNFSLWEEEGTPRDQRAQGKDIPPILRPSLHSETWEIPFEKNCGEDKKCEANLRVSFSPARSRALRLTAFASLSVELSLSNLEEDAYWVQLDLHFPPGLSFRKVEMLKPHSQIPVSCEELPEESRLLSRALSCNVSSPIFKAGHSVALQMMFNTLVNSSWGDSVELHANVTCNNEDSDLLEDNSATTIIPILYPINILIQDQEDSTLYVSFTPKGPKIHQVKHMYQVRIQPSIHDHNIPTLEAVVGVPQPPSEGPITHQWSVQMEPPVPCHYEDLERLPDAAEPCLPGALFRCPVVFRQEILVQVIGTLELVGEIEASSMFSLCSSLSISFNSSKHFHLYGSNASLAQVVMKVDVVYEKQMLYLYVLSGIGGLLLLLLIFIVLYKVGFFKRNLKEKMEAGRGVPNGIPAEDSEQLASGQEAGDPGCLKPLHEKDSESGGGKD
T1 sequence (P05107 23-769): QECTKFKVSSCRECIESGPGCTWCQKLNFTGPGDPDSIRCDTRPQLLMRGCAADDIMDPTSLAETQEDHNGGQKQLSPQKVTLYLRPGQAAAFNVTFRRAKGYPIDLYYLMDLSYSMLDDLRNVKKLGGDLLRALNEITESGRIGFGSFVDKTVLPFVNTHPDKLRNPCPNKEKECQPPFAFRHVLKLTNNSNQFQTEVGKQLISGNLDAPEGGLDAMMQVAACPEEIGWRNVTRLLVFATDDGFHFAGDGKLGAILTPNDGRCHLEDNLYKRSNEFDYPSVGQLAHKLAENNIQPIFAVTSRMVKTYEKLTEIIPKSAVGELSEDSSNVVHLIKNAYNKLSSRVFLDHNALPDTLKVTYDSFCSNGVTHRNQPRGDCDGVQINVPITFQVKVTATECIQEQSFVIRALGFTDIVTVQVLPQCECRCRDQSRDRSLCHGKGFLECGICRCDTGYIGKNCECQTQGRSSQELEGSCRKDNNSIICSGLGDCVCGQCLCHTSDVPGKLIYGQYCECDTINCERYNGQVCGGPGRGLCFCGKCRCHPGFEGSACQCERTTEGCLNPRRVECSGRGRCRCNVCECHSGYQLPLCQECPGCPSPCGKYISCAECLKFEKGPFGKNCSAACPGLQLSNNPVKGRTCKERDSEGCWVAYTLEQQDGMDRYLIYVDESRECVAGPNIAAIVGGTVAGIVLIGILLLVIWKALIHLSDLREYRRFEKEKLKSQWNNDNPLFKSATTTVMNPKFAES

| SMILES | LAD Raw Fluorescence Units against LFA-1; Dose 3 µM; Ratio of raw counts Compound/THI0349 (αLβ2/ICAM-1) | Group against VCAM (α4β1/VCAM-1) |
| --- | --- | --- |
| COc1cccc(CN(Cc2cccc(OC)c2)c2nc(COCCOCCOc3cccc(C#N)c3)cs2)c1 [Compound 45, 3-(2-(2-((2-(bis(3-methoxybenzyl)amino)thiazol-4-yl)methoxy)ethoxy)ethoxy)benzonitrile] | 0.76 | I (Group I maintains at least the same potency or better up to more than twice that of the EC50 of THI0349 ran on the same plate) |
| CCOC(=O)c1csc(N(Cc2cccc(OC)c2)CC(C)C)n1 [Compound 121, ethyl 2-(isobutyl(3-methoxybenzyl)amino)thiazole-4-carboxylate] | 0.18 | III (Group III more than five times the EC50 of THI0349) |
| COCCOc1cccc(CN(Cc2cccc(OCCOC)c2)c2nc(C)cs2)c1 [Compound 30, N,N-bis(3-(2-methoxyethoxy)benzyl)-4-methylthiazol-2-amine] | 1.2 | III (Group III more than five times the EC50 of THI0349) |
| CCOC(=O)c1coc(N(Cc2cccs2)Cc2cccs2)n1 [Compound 13, ethyl 2-(bis(thiophen-2-ylmethyl)amino)oxazole-4-carboxylate] | 0.1 | I (Group I maintains at least the same potency or better up to more than twice that of the EC50 of THI0349 ran on the same plate) |
| COc1cccc(CN(Cc2cccc(OC)c2)c2cnc(CCOc3ccccc3)o2)c1 [Compound 27, N,N-bis(3-methoxybenzyl)-2-(2-phenoxyethyl)oxazol-5-amine] | 0.28 | III (Group III more than five times the EC50 of THI0349) |
| COc1cccc(CN(Cc2cccc(OC)c2)c2nc(COCCN3CCOCC3)co2)c1 [Compound 87, N,N-bis(3-methoxybenzyl)-4-((2-morpholinoethoxy)methyl)oxazol-2-amine] | 0.2 | I (Group I maintains at least the same potency or better up to more than twice that of the EC50 of THI0349 ran on the same plate) |
| COc1ccc(CCCOCc2csc(N(Cc3cccc(OC)c3)Cc3cccc(OC)c3)n2)cc1 [Compound 39, N,N-bis(3-methoxybenzyl)-4-((3-(4-methoxyphenyl)propoxy)methyl)thiazol-2-amine] | 0.23 | III (Group III more than five times the EC50 of THI0349) |
| COc1cccc(CN(Cc2cccc(OC)c2)c2nc(COCCOCCOc3ccc(N(C)C)cc3)cs2)c1 [Compound 46, 4-((2-(2-(4-(dimethylamino)phenoxy)ethoxy)ethoxy)methyl)-N,N-bis(3-methoxybenzyl)thiazol-2-amine] | 1.5 | I (Group I maintains at least the same potency or better up to more than twice that of the EC50 of THI0349 ran on the same plate) |
| COc1cccc(COCc2csc(N(C)Cc3cccc(OC)c3)n2)c1 [Compound 112, N-(3-methoxybenzyl)-4-((3-methoxybenzyloxy)methyl)-N-methylthiazol-2-amine] | 0.04 | III (Group III more than five times the EC50 of THI0349) |
| CCOC(=O)c1coc(N(Cc2cccc(OC)c2)Cc2cccc(OC)c2)n1 [Compound 14, ethyl 2-(bis(3-methoxybenzyl)amino)oxazole-4-carboxylate] | 1.0 | I (Group I maintains at least the same potency or better up to more than twice that of the EC50 of THI0349 ran on the same plate) |
| COc1cccc(CN(Cc2cccc(-n3ccnc3)c2)c2nc(CN3CCOCC3)cs2)c1 [Compound 79, N-(3-(1H-imidazol-1-yl)benzyl)-N-(3-methoxybenzyl)-4-(morpholinomethyl)thiazol-2-amine] | 0.32 | II (Group II is more than twice that of THI0349 but less than five times THI0349's EC50) |
| COc1cccc(CN(Cc2cccc(OC)c2)c2nc(COCCOCCOc3ccccc3)cs2)c1 [Compound 43, N,N-bis(3-methoxybenzyl)-4-((2-(2-phenoxyethoxy)ethoxy)methyl)thiazol-2-amine] | 0.80 | I (Group I maintains at least the same potency or better up to more than twice that of the EC50 of THI0349 ran on the same plate) |
| COc1ccc(CCCOCc2coc(N(Cc3cccs3)Cc3cccs3)n2)cc1 [Compound 24, 4-((3-(4-methoxyphenyl)propoxy)methyl)-N,N-bis(thiophen-2-ylmethyl)oxazol-2-amine] | 0.85 | II (Group II is more than twice that of THI0349 but less than five times THI0349's EC50) |
| COc1ccc(CCc2csc(N(Cc3cccc(OC)c3)Cc3cccc(OC)c3)n2)cc1 [Compound 71, N,N-bis(3-methoxybenzyl)-4-(4-methoxyphenethyl)thiazol-2-amine] | 0.1 | III (Group III more than five times the EC50 of THI0349) |
| COc1cccc(CN(C)c2nc(CN3CCOCC3)cs2)c1 [Compound 111, N-(3-methoxybenzyl)-N-methyl-4-(morpholinomethyl)thiazol-2-amine] | 0.06 | III (Group III more than five times the EC50 of THI0349) |
| COc1cccc(CN(Cc2cccc(OC)c2)c2nc(COCCOc3cccc(C#N)c3)cs2)c1 [Compound 50, 3-(2-((2-(bis(3-methoxybenzyl)amino)thiazol-4-yl)methoxy)ethoxy)benzonitrile] | 1.2 | III (Group III more than five times the EC50 of THI0349) |
| CCOC(=O)c1coc(N(Cc2cccc(OCCOC)c2)Cc2cccc(OCCOC)c2)n1 [Compound 16, ethyl 2-(bis(3-(2-methoxyethoxy)benzyl)amino)oxazole-4-carboxylate] | 0.49 | II (Group II is more than twice that of THI0349 but less than five times THI0349's EC50) |
| COc1cccc(CN(Cc2cccc(OC)c2)c2nc(COCCOCc3ccccc3)cs2)c1 [Compound 58, 4-((2-(benzyloxy)ethoxy)methyl)-N,N-bis(3-methoxybenzyl)thiazol-2-amine] | 0.48 | I (Group I maintains at least the same potency or better up to more than twice that of the EC50 of THI0349 ran on the same plate) |
| COc1cccc(COCc2csc(N(Cc3cccc(OC)c3)Cc3cccc(OC)c3)n2)c1 [Compound 38, N,N-bis(3-methoxybenzyl)-4-((3-methoxybenzyloxy)methyl)thiazol-2-amine] | 0.16 | III (Group III more than five times the EC50 of THI0349) |
| CCOC(=O)c1csc(N(Cc2cccc(OC)c2)Cc2cccc(OC)c2)n1 [Compound 102, ethyl 2-(bis(3-methoxybenzyl)amino)thiazole-4-carboxylate] | 0.5 | II (Group II is more than twice that of THI0349 but less than five times THI0349's EC50) |
| COc1ccc(CCNC(=O)c2coc(N(Cc3cccc(OC)c3)Cc3cccc(OC)c3)n2)cc1 [Compound 19, 2-(bis(3-methoxybenzyl)amino)-N-(4-methoxyphenethyl)oxazole-4-carboxamide] | 0.12 | II (Group II is more than twice that of THI0349 but less than five times THI0349's EC50) |
| COc1cccc(CN(Cc2cccc(N(C)C)c2)c2nc(CN3CCOCC3)cs2)c1 [Compound 73, N-(3-(dimethylamino)benzyl)-N-(3-methoxybenzyl)-4-(morpholinomethyl)thiazol-2-amine] | 0.12 | II (Group II is more than twice that of THI0349 but less than five times THI0349's EC50) |
